Test results published in ChEMBL document CHEMBL5214970, “Discovery and optimization of orally bioavailable and potent plasma Kallikrein inhibitors bearing a quaternary carbon” (Bioorg Med Chem, 2022).
pIC50: −log10 of the molar value.

Molecular target: T1, Plasma kallikrein (Homo sapiens, UniProt P03952)
T1 sequence (P03952 20-390 limits assumed): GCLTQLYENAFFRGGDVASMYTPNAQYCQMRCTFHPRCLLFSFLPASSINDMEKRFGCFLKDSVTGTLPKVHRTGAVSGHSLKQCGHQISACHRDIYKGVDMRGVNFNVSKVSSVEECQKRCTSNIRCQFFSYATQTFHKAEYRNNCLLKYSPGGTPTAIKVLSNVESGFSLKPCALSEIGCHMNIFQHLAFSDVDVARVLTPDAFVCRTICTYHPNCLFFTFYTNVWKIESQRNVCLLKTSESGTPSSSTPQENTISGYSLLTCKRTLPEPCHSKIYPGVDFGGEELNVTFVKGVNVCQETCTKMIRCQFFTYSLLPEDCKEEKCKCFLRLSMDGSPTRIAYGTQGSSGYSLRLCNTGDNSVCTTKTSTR
T1 sequence (P03952 391-638 limits assumed): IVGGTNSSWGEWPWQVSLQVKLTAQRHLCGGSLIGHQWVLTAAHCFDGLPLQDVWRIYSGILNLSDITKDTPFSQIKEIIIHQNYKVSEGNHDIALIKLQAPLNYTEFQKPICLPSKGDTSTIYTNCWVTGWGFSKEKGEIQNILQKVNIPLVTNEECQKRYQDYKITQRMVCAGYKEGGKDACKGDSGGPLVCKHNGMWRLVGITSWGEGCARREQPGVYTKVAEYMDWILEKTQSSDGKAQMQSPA
Assay: Inhibition of purified human plasma kallikrein using H-D-Pro-Phe-Arg-pNA.2HCl as substrate measured after 3 mins by microplate reader analysis
Details: not given
For `NCc1cccc(-n2nc(C(F)(F)F)cc2C(=O)Nc2cc(C(N)(CCC3CC3)c3ccc(C(N)=O)cc3)ccc2F)c1` (stereo not drawn), the pIC50 was 9.05. With `NCc1cccc(-n2nc(C(F)(F)F)cc2C(=O)Nc2cccc(C(O)(CCC3CC3)c3cccnc3)c2)c1` (stereo in doubt; 18) the pIC50 was 8.72. In the case of `NCc1cccc(-n2nc(C(F)(F)F)cc2C(=O)Nc2cc(C(O)(CCC3CC3)c3ccncc3)ccc2F)c1` (stereo in doubt; 25), the pIC50 was 8.96. `NCc1cccc(-n2nc(C(F)(F)F)cc2C(=O)Nc2cccc(C(O)(CCC3CC3)c3ccncc3)c2)c1` (stereo in doubt; 9) showed a pIC50 of 8.33. `NCc1cccc(-n2nc(C(F)(F)F)cc2C(=O)Nc2cc(C(N)(CCC3CC3)c3ccc(C(N)=O)nc3)ccc2F)c1` (single isomer, unassigned; (+)) gave a pIC50 of 8.64. For `NCc1cccc(-n2nc(C(F)(F)F)cc2C(=O)Nc2cc(C(N)(CCC3CC3)c3ccncc3)ccc2F)c1` (stereo in doubt; 33), the pIC50 was 8.82. With `NCc1cccc(-n2nc(C(F)(F)F)cc2C(=O)Nc2cccc(C(O)(CCC3CC3)c3ccccc3)c2)c1` (stereo in doubt; 6) the pIC50 was 7.85. Compound `NCc1cccc(-n2nc(C(F)(F)F)cc2C(=O)Nc2cc(C(N)(CCC3CC3)c3ccncc3)ccc2F)c1` (stereo in doubt; 34) has a pIC50 of 6.93. Work on `NCc1cccc(-n2nc(C(F)(F)F)cc2C(=O)Nc2cccc(C(O)(CCC3CC3)c3ccccn3)c2)c1` (stereo not drawn) yielded a pIC50 of 7.73. For `NCc1cccc(-n2nc(C(F)(F)F)cc2C(=O)Nc2cccc(C(O)(CCC3CC3)c3cccnc3)c2)c1` (stereo in doubt; 19), the pIC50 was 7.23. Work on `NCc1cccc(-n2nc(C(F)(F)F)cc2C(=O)Nc2cccc(C(O)(CCC3CC3)c3ccccc3)c2)c1` (stereo in doubt; 10) yielded a pIC50 of 8.92. With `NCc1cccc(-n2nc(C(F)(F)F)cc2C(=O)Nc2cccc(C(O)(CCC3CC3)c3ccncc3)c2)c1` (stereo in doubt; 23) the pIC50 was 8.89. `NCc1cccc(-n2nc(C(F)(F)F)cc2C(=O)Nc2cccc(C(CCC3CC3)c3ccccc3)c2)c1` (stereo not drawn) gave a pIC50 of 7.98. Compound `NCc1cccc(-n2nc(C(F)(F)F)cc2C(=O)Nc2cc(C(N)(CCC3CC3)c3cccc(C(N)=O)c3)ccc2F)c1` (stereo not drawn) has a pIC50 of 8.89.

Molecular target: T1, Plasma kallikrein
Assay: Inhibition of endogenous human plasma kallikrein using Z-Phe-Arg-AMC.HCl as substrate measured after 5 mins by microplate reader analysis
Details: not given
Work on `NCc1cccc(-n2nc(C(F)(F)F)cc2C(=O)Nc2cc(C(N)(CCC3CC3)c3ccc(C(N)=O)cc3)ccc2F)c1` (stereo not drawn) yielded a pIC50 of 8.42. With `NCc1cccc(-n2nc(C(F)(F)F)cc2C(=O)Nc2cccc(C(O)(CCC3CC3)c3cccnc3)c2)c1` (stereo in doubt; 18) the pIC50 was 8.05. With `NCc1cccc(-n2nc(C(F)(F)F)cc2C(=O)Nc2cc(C(O)(CCC3CC3)c3ccncc3)ccc2F)c1` (stereo in doubt; 25) the pIC50 was 8.11. With `NCc1cccc(-n2nc(C(F)(F)F)cc2C(=O)Nc2cccc(C(O)(CCC3CC3)c3ccncc3)c2)c1` (stereo in doubt; 9) the pIC50 was 7.77. With `NCc1cccc(-n2nc(C(F)(F)F)cc2C(=O)Nc2cc(C(N)(CCC3CC3)c3ccc(C(N)=O)nc3)ccc2F)c1` (single isomer, unassigned; (+)) the pIC50 was 8.77. With `NCc1cccc(-n2nc(C(F)(F)F)cc2C(=O)Nc2cc(C(N)(CCC3CC3)c3ccncc3)ccc2F)c1` (stereo in doubt; 33) the pIC50 was 8.52. Compound `NCc1cccc(-n2nc(C(F)(F)F)cc2C(=O)Nc2cccc(C(O)(CCC3CC3)c3ccccc3)c2)c1` (stereo in doubt; 6) has a pIC50 of 6.72. Compound `NCc1cccc(-n2nc(C(F)(F)F)cc2C(=O)Nc2cc(C(N)(CCC3CC3)c3ccncc3)ccc2F)c1` (stereo in doubt; 34) has a pIC50 of 7.12. `NCc1cccc(-n2nc(C(F)(F)F)cc2C(=O)Nc2cccc(C(O)(CCC3CC3)c3ccccn3)c2)c1` (stereo not drawn) showed a pIC50 of 6.98. With `NCc1cccc(-n2nc(C(F)(F)F)cc2C(=O)Nc2cccc(C(O)(CCC3CC3)c3cccnc3)c2)c1` (stereo in doubt; 19) the pIC50 was 6.58. In the case of `NCc1cccc(-n2nc(C(F)(F)F)cc2C(=O)Nc2cccc(C(O)(CCC3CC3)c3ccccc3)c2)c1` (stereo in doubt; 10), the pIC50 was 7.25. Work on `NCc1cccc(-n2nc(C(F)(F)F)cc2C(=O)Nc2cccc(C(O)(CCC3CC3)c3ccncc3)c2)c1` (stereo in doubt; 23) yielded a pIC50 of 8.12. Work on `NCc1cccc(-n2nc(C(F)(F)F)cc2C(=O)Nc2cccc(C(CCC3CC3)c3ccccc3)c2)c1` (stereo not drawn) yielded a pIC50 of 5.69. Compound `NCc1cccc(-n2nc(C(F)(F)F)cc2C(=O)Nc2cc(C(N)(CCC3CC3)c3cccc(C(N)=O)c3)ccc2F)c1` (stereo not drawn) has a pIC50 of 8.22.

Test system: not listed separately
Assay: Cmax in Sprague-Dawley rat at 10 mg/kg,po
Type: ADME, organism-based
Set-up: dose 10 mg/kg, route po
Details: Sprague-Dawley, in vivo, read-out: Cmax
With `NCc1cccc(-n2nc(C(F)(F)F)cc2C(=O)Nc2cccc(C(O)(CCC3CC3)c3cccnc3)c2)c1` (stereo in doubt; 18) the Cmax was 51 ng/mL. Compound `NCc1cccc(-n2nc(C(F)(F)F)cc2C(=O)Nc2cc(C(O)(CCC3CC3)c3ccncc3)ccc2F)c1` (stereo in doubt; 25) has a Cmax of 42 ng/mL. With `NCc1cccc(-n2nc(C(F)(F)F)cc2C(=O)Nc2cc(C(N)(CCC3CC3)c3ccc(C(N)=O)nc3)ccc2F)c1` (single isomer, unassigned; (+)) the Cmax was 27 ng/mL. With `NCc1cccc(-n2nc(C(F)(F)F)cc2C(=O)Nc2cc(C(N)(CCC3CC3)c3ccncc3)ccc2F)c1` (stereo in doubt; 33) the Cmax was 93 ng/mL. For `NCc1cccc(-n2nc(C(F)(F)F)cc2C(=O)Nc2cccc(C(O)(CCC3CC3)c3ccncc3)c2)c1` (stereo in doubt; 23), the Cmax was 7 ng/mL. Work on `NCc1cccc(-n2nc(C(F)(F)F)cc2C(=O)Nc2cc(C(N)(CCC3CC3)c3cccc(C(N)=O)c3)ccc2F)c1` (stereo not drawn) yielded a Cmax of 17 ng/mL.

Test system: not listed separately
Assay: Cmin in Sprague-Dawley rat at 10 mg/kg,po measured after 24 hrs
Type: ADME, organism-based
Details: Sprague-Dawley, in vivo, read-out: Cmin
Compound `NCc1cccc(-n2nc(C(F)(F)F)cc2C(=O)Nc2cc(C(O)(CCC3CC3)c3ccncc3)ccc2F)c1` (stereo in doubt; 25) has a concentration at 24 h of 2 ng/mL. `NCc1cccc(-n2nc(C(F)(F)F)cc2C(=O)Nc2cc(C(N)(CCC3CC3)c3ccncc3)ccc2F)c1` (stereo in doubt; 33) showed a concentration at 24 h of 22.9 ng/mL. Compound `NCc1cccc(-n2nc(C(F)(F)F)cc2C(=O)Nc2cc(C(N)(CCC3CC3)c3cccc(C(N)=O)c3)ccc2F)c1` (stereo not drawn) has a concentration at 24 h of 9.4 ng/mL.

Test system: not listed separately
Assay: AUC (0 to 24hrs) in Sprague-Dawley rat at 10 mg/kg,po
Type: ADME, organism-based
Set-up: time < 24 hr, dose 10 mg/kg, route po
Details: Sprague-Dawley, in vivo
For `NCc1cccc(-n2nc(C(F)(F)F)cc2C(=O)Nc2cccc(C(O)(CCC3CC3)c3cccnc3)c2)c1` (stereo in doubt; 18), the AUC(0-t) at 24 h was 128 ng·h/mL. In the case of `NCc1cccc(-n2nc(C(F)(F)F)cc2C(=O)Nc2cc(C(O)(CCC3CC3)c3ccncc3)ccc2F)c1` (stereo in doubt; 25), the AUC(0-t) at 24 h was 95 ng·h/mL. For `NCc1cccc(-n2nc(C(F)(F)F)cc2C(=O)Nc2cc(C(N)(CCC3CC3)c3ccc(C(N)=O)nc3)ccc2F)c1` (single isomer, unassigned; (+)), the AUC(0-t) at 24 h was 134 ng·h/mL. With `NCc1cccc(-n2nc(C(F)(F)F)cc2C(=O)Nc2cc(C(N)(CCC3CC3)c3ccncc3)ccc2F)c1` (stereo in doubt; 33) the AUC(0-t) at 24 h was 825 ng·h/mL. In the case of `NCc1cccc(-n2nc(C(F)(F)F)cc2C(=O)Nc2cccc(C(O)(CCC3CC3)c3ccncc3)c2)c1` (stereo in doubt; 23), the AUC(0-t) at 24 h was 11 ng·h/mL. For `NCc1cccc(-n2nc(C(F)(F)F)cc2C(=O)Nc2cc(C(N)(CCC3CC3)c3cccc(C(N)=O)c3)ccc2F)c1` (stereo not drawn), the AUC(0-t) at 24 h was 306 ng·h/mL.
